Measured values as given in patent US20130296358A1, “3-SPIROCYCLIC PIPERIDINE DERIVATIVES AS GHRELIN RECEPTOR AGONISTS” (priority 2012, published 2013).

Legend:
[1] = Aqueous solubility of crystalline L-malate salt forms versus free base; format: physicochemical; conditions: compared to the free base amorphous form
rat fundus = test: Rat fundus contractility assay (EFS-induced contraction of muscle strips); conditions: for EC50: increase of EFS-induced contraction, mean of preparations from at least 3 animals
Description: Male Sprague Dawley rats (180-250 g) were culled by cervical dislocation and the fundus was removed. Each fundus was placed on a Krebs Henseleit (KH) buffer soaked dissection dish and cut along the long curvature to form a flattened sheet that was pinned in each corner. Four adjacent longitudinal strips (10×3 mm) were cut and the mucosa removed by sharp dissection. Each muscle strip was mounted in a 10 ml organ bath containing oxygenated KH at 37° C. Each strip was connected to an isometric force transducer, calibrated initially using a 5 g weight. The signal (g tension) was amplified and responses recorded by a Powerlab data capture system, connected to a computer running Labchart software (version 5.0). Tissues were placed under 1 g tension for an equilibration period of 30 min or until the baseline tension had stabilised. Carbachol (CCh, 100 nM) was then administered to establish the maximum contractile response of each preparation. Tissues were washed thoroughly and left for 30 min to re-equilibrate. Next, the muscle strips underwent electrical field stimulation (EFS). Maximal EFS pulse trains of 12V, 5 Hz, 0.1 msec pulse width, for 2 sec every 60 sec were applied until consistent electrically-stimulated phasic contractions were recorded. The voltage was then reduced in 1V increments until a consistent submaximal (EC50-75) EFS response was observed. Ghrelin (100 nM) was administered and left until a maximum response was obtained. Tissues were then washed thoroughly and left for 30 min. Once the EFS-induced contraction had re-stabilised, cumulative additions (10 nM-10 μM) of each test compound were administered. Individual responses were calculated by determining the peak of the EFS-induced contraction minus the baseline. […] The mean EC50 value for compounds was generated from data obtained on stomach preparations from at least 3 different animals.

[2] = molecular target: T1, human recombinant ghrelin receptor (GHS-R1a) (Homo sapiens, UniProt Q92847); test: Calcium assay, CHO-K1 cells expressing hGHS-R1a (Fluo-4); format: cell-based; conditions: CHO-K1, relative to the Emax induced by MK-0677 (defined as 100%); read-out: hGHS-R1a Ca assay Emax/%
T1 construct: host or cells: CHO-K1
Description: (§1) Chinese hamster ovary (CHO-K1) cells expressing human recombinant ghrelin receptor (GHS-R1a) were purchased from Euroscreen (ES-410-C) and propagated in UltraCHO medium containing glutamine and supplemented with 1% heat inactivated foetal calf serum (FCS), 100 U/ml penicillin, 100 mg/l streptomycin and 0.8 g/l geneticin. Cells were sub-cultured twice a week with a 1:10 dilution. For passaging, cells were washed with 1× DPBS without calcium and magnesium, trypsinised for 10 min with 0.05% Trypsin/EDTA and resuspended in cell culture medium.
Cells were diluted to achieve 1×10^6 cells/ml, seeded in 384-well black clear bottom CellBind plates at 25000 cells/well (25u1) and incubated overnight at 37° C./5% CO2 Cells were expected to be 85-90% confluent on the day of assay (checked under the microscope) to ensure a high quality assay. Media was manually removed and 40 μl of loading solution containing probenecid and Fluo-4 no wash dye (a calcium indicator, Invitrogen F36206) were added to each well. After 30 min at 37° C. followed by another 30 min at RT, cpds were added to the wells. To generate a dose response up to 30 μM, 10 mM compound stocks in 100% (v/v) DMSO were firstly diluted in 50% (v/v) DMSO. Then, serial dilutions aimed at a full logarithmic dose responses (8 point) were performed in assay buffer [1×HBSS, 20 mM Hepes, 0.1% (w/v) BSA] to give 2.5% (v/v) DMSO and 5× final compound concentrations. The final assay DMSO concentration was 0.5% (v/v). After loading the cells with Fluo-4 containing solution, plates were read on a CeIlLux instrument (Perkin Elmer). A protocol set up to add 10 μl of 5× compound and to read the plate for 60sec after adding the compound at 17th sec was used. Fluorescence excitation took place at 494 nm and emission at 516 nm. EC50 values of agonists were calculated by fitting the percent stimulation over background [(Max-Min)/Min] using the nonlinear logistic function of the Prism 5 software (GraphPad, USA).

[3] = molecular target: T1, human recombinant ghrelin receptor (GHS-R1a); test: cAMP assay (HTRF), CHO-hGHS-R1a cells; format: cell-based; conditions: relative to the ghrelin response (defined as 100%)
Description: as §1
The Homogeneous Time-Resolved Fluorescence (HTRF) cAMP dynamic 2 kit (Cisbio International, France) was used as follows. CHO-hGHS—R1a or CHO-rGHS—R1a cells were seeded in a volume of 25 μl culture media at 10,000 cells/well (400,000 cells/ml) in Greiner white 384-well high volume plates and incubated overnight (18-24 h) at 37° C./5% CO2. Then, media was removed and 6 μl assay buffer [HBSS, 10 mM Hepes, 0.2% (w/v) BSA, 1.7 mM IBMX, (pH7.4)] were added to the wells. To generate a dose response up to 30 μM, 10 mM compound stocks in 100% (v/v) DMSO were firstly diluted in 50% (v/v) DMSO followed by a further dilution into assay buffer. Then, 4 μl of 2.5× compound (dose response as 9 point log serial dilution in assay buffer from 30 μM as maximum concentration) were added to each well achieving a final DMSO assay concentration of 0.8% (v/v). 0.1 μM forskolin was added as positive control. After 30 min (rGHS—R1a cell line) or 60 min (hGHS—R1a cell line) incubation at 37° C./5% CO2, 5 μl of cAMP-d2 and 5 μl of anti-cAMP antibody-cryptate, (both made in lysis buffer), were added to the plate followed by 1 h incubation at RT. During this time, cAMP produced by the cells competed with cAMP-d2 for the anti-cAMP antibody-cryptate molecule. Then, the plate was read on the Pherastar instrument (BMG, Germany) at two different emission wavelengths ([…]). Increasing levels of endogenous cAMP produced by cells could be followed by a decrease of FRET fluorescent signal and viceversa. Values represented by a change in arbitrary fluorescence ratios (665/620) were converted into cAMP concentrations by using a standard curve, the reagents for which were supplied with the kit. EC50 values of agonists were calculated using the nonlinear logistic function of the Prism 5 software (GraphPad, USA). Emax were expressed as relative values of the ghrelin response, which was defined as 100%.

[4] = Rattus norvegicus, relative to the response to ghrelin (100 nM), defined as 100%

T1 sequence (Q92847 whole entry): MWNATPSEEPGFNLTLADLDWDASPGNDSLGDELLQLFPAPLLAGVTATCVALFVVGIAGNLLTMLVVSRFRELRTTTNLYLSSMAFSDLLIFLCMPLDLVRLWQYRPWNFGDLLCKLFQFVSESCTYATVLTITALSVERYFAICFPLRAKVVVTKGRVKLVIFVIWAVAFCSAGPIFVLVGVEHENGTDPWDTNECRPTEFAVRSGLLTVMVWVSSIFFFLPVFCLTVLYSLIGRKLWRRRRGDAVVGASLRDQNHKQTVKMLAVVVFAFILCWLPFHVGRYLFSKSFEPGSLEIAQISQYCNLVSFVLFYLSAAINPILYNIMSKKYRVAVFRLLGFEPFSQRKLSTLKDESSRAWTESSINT

For `CN1C[C@@H](c2ccc(F)cc2)[C@@]2(CCCN(C(=O)[C@@H](COCc3ccccc3)NC(=O)C(C)(C)N)C2)C1=O.O=C(O)C[C@H](O)C(=O)O` [2-amino-N-((2R)-3-(benzyloxy)-1-((4S,5R)-4-(4-fluorophenyl)-2-methyl-1-oxo-2,7-diazaspiro[4.5]decan-7-yl)-1-oxopropan-2-yl)-2-methylpropanamide L-malate salt], the aqueous solubility [1] was “increased aqueous solubility”.

With `CN1C[C@@H](c2ccccc2)[C@@]2(CCCN(C(=O)[C@@H](COCc3ccccc3)NC(=O)C(C)(C)N)C2)C1=O.O=C(O)C[C@H](O)C(=O)O` [2-Amino-N—[(R)-1-benzyloxymethyl-2-((4S,5R)-2-methyl-1-oxo-4-phenyl-2,7-diaza-spiro[4.5]dec-7-yl)-2-oxo-ethyl]-2-methyl-propionamide L-malate salt] the aqueous solubility [1] was “increased aqueous solubility”.

For `Cc1ccc(C2CN(C)C(=O)C23CCCN(C(=O)[C@@H](COCc2ccccc2)NC(=O)C(C)(C)N)C3)cc1.O=C(O)C[C@H](O)C(=O)O` (stereo partly drawn) [2-amino-N-((2R)-3-(benzyloxy)-1-(2-methyl-1-oxo-4-p-tolyl-2,7-diazaspiro[4.5]decan-7-yl)-1-oxopropan-2-yl)-2-methylpropanamide L-malate salt], the aqueous solubility [1] was “increased aqueous solubility”.

In the case of `CN1CC(c2ccc(F)cc2)C2(CCCN(C(=O)[C@@H](Cc3c[nH]c4ccccc34)NC(=O)C(C)(C)N)C2)C1=O` (single isomer, unassigned) [Example 1.11], the EC50 (rat fundus; Rattus norvegicus) is reported as 24 nM, the Emax (rat fundus; [4]) is reported as 99% and the Emax [2] is reported as 102%. The Emax [3] was 289%.

For `CN1CC(c2ccccc2)C2(CCCN(C(=O)[C@@H](COCc3ccccc3)NC(=O)C(C)(C)N)C2)C1=O` (single isomer, unassigned) [Example 1.20], the EC50 (rat fundus) was 393 nM, the Emax/% (rat fundus; relative to the response to ghrelin (100 nM), defined as 100%) was 39% and the Emax [2] was 99%. For the same compound, the “hGHS-R1a cAMP assay Emax/%” value [3] was 169%.

`C[C@H](OCc1ccccc1)[C@@H](NC(=O)C(C)(C)N)C(=O)N1CCCC2(C1)C(=O)N(C)CC2c1ccccc1` (single isomer, unassigned) [Example 1.34] gave an EC50 (rat fundus; Rattus norvegicus) of 68 nM, an Emax (rat fundus; [4]) of 115% and an Emax [2] of 107%. It also gave an Emax [3] of 168%.

In the case of `CC(C)N1CC(c2ccccc2)C2(CCCN(C(=O)[C@@H](COCc3ccccc3)NC(=O)C(C)(C)N)C2)C1=O` (single isomer, unassigned) [Example 1.5], the Emax (rat fundus; [4]) is reported as 80%, the EC50 (rat fundus) is reported as 35 nM and the Emax [2] is reported as 96%. It also gave an Emax [3] of 195%.
